This is an account of results in patent US20200317660A1, “Quinazolinone Compound and Application Thereof” (LUOXIN PHARMACEUTICAL (SHANGHAI) CO., LTD., priority 2017, published 2020).

Read-outs that look alike come from different tables or passages of the source.

The test system of data set [1] is phosphorylation of PI3K downstream protein Akt in MCF7 cells. Briefly: In vitro test of cells activity: ELISA of Akt phosphorylation in MCF7 cells. Type of data set: cell-based. Particulars: 2 h compound, insulin 10 μg/mL stimulation, pAkt ELISA, read-out: MCF7 Cell IC50. Summed up: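 MCF7 cells were serum-starved overnight, exposed to 10-point three-fold compound dilutions for 2 h at 37°C, then stimulated with 10 μg/mL insulin for 30 min. Lysates were assayed for phospho-Akt by ELISA.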

Another data set has as its target T1, PI3Kα (Homo sapiens, UniProt P42336).
T1 construct: purchased Millipore 14-602-K
Briefly: In vitro test of enzyme activity (ADP-Glo lipokinase), PI3K alpha. Particulars: 40 μM ATP, 50 μM PIP2:3PS, 120 min. Type of data set: biochemical. A general note: ADP-Glo turns the ADP formed in a reaction into a luminescent signal.

A further data set concerns the target T2, PI3Kβ (Homo sapiens, UniProt P42338).
T2 construct: purchased Promega V1751
Briefly: In vitro test of enzyme activity (ADP-Glo lipokinase), PI3K beta. To be noted: 40 μM ATP, 50 μM PIP2:3PS, 120 min. Format: biochemical.

The next data set has as its system PI3K. To be noted: literature statement; cited from earlier work.
The target in another data set is T3, PI3Kδ (Homo sapiens, UniProt O00329).
T3 construct: purchased Millipore 14-604-K
T3 sequence (O00329 whole entry): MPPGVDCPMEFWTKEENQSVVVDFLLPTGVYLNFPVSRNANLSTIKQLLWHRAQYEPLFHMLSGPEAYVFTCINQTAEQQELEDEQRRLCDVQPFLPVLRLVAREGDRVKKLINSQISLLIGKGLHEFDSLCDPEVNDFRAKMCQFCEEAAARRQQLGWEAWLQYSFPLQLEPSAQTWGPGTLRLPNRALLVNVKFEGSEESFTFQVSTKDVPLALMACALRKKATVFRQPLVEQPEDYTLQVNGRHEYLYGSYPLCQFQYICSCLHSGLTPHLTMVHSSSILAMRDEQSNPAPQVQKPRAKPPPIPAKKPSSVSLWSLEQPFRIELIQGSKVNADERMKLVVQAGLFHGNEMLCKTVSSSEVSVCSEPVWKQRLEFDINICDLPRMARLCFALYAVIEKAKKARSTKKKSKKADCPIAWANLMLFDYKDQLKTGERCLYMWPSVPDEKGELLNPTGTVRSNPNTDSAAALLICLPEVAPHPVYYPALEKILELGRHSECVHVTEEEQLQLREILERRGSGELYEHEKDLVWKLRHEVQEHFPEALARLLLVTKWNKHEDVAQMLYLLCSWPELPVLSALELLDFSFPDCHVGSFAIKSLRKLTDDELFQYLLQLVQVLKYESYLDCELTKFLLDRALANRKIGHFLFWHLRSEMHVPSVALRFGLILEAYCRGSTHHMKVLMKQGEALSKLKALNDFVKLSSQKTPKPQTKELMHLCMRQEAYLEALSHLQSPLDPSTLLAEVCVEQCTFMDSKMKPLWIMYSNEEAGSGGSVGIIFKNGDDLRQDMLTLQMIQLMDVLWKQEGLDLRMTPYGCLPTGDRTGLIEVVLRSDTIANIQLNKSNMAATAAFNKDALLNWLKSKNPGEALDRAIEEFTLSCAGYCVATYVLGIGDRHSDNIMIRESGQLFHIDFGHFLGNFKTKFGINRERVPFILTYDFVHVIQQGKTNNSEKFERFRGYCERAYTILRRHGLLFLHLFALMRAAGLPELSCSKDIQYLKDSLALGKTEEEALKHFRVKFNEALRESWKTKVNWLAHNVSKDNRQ
T3 sequence (P27986 whole entry partner): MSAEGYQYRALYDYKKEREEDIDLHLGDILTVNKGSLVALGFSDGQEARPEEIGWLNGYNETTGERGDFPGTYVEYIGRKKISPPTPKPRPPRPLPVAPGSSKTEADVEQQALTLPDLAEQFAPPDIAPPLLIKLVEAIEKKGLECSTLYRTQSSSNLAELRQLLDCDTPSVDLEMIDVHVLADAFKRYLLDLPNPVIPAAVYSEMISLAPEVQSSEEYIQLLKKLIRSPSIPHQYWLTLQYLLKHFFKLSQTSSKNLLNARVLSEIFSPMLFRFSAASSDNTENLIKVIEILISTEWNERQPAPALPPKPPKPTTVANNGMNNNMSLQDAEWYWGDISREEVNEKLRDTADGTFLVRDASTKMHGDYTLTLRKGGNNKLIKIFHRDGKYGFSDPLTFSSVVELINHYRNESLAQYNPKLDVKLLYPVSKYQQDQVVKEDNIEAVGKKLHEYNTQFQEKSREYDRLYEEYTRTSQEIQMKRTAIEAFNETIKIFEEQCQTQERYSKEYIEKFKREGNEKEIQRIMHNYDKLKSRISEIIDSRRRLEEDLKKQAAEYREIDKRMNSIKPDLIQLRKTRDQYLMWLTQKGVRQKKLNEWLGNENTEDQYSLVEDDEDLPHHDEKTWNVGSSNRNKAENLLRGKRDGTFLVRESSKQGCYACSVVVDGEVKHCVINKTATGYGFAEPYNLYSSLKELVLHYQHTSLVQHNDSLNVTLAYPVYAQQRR
Briefly: In vitro test of enzyme activity (ADP-Glo lipokinase), PI3K delta. Type of data set: biochemical. Particulars: 40 μM ATP, 50 μM PIP2:3PS, 120 min.

A further data set has as its target T4, PI3Kγ (Homo sapiens, UniProt P48736).
T4 construct: purchased Millipore 14-558-K
Briefly: In vitro test of enzyme activity (ADP-Glo lipokinase), PI3K gamma. Format: biochemical. Particulars: 25 μM ATP, 50 μM PIP2:3PS, 120 min.

Data set [2] concerns human breast cancer BT-474 cells. Briefly: Subcutaneous xenograft tumor model of human breast cancer BT-474 cells. Type of data set: in vivo, BALB/c nude mouse. To be noted: BT-474 xenograft, 30 mpk. The procedure: 2. In vivo drug-efficacy study
(1) BALB/c nude mouse subcutaneous xenograft tumor model of human breast cancer BT-474 cells
Human breast cancer BT-474 cells (ATCC, Manassas, Va., batch number: HTB-20) were subjected to in vitro monolayer culture, and the culture conditions were: Hybri-Care medium with 10% fetal bovine serum and 1% double antibody, 37° C. and 5% CO2 incubator. The cells were passaged by digestion with trypsin-EDTA twice a week. When the cells saturation reached 80-90%, and the quantity met the requirement, the cells was collected, counted and inoculated.
Tumor cell inoculation (tumor inoculation)
The subcutaneous implantation of the estrogen tablets (Innovative Research, Cat # SE-121, 0.36 mg/60-day release) was carried out one day before cell inoculation. 0.2 mL […] of BT-474 cells (with matrigel, volume 1:1) was subcutaneously inoculated into the right back of each mouse. When the average tumor volume reached 188 mm^3, the administration was started in groups.
Preparation of Test Substance […]
The experimental index was to evaluate whether the tumor growth was inhibited, delayed or cured. The diameter of the tumor was measured with a vernier caliper twice a week. […]
The antitumor efficacy of the compound was evaluated by TGI (%) or relative tumor proliferation rate T/C (%). […]
For orientation: A xenograft is tissue or cells of one species grown in another, often human tumour cells in immunodeficient mice.

Data set [3] is described as follows: In vivo DMPK study in mice after a single administration. More on the design: species or system female Balb/c mice. The protocol: Experimental objective: female Balb/c mice were used as the test animals, and the blood concentration of the compound was determined and the pharmacokinetic behavior was evaluated after a single administration.
Experimental operation: 12 healthy adult female Balb/c mice were selected, 6 for intravenous injection group and 6 for oral administration group. The compound to be tested was mixed with an appropriate amount of intravenous injection group vehicle (10% HP-betaCD: 10% solutol=1:1, pH=8), vortex-mixed and sonicated to prepare a 1.0 mg/mL clear solution, followed by filtration for subsequent use; the vehicle in the oral group was 0.5% MC/0.2% Tw80. After the test compound and the vehicle were mixed, it was vortex-mixed and sonicated to prepare a 1.0 mg/mL homogeneous suspension for subsequent use. After an intravenous administration at a dose of 1 mg/kg or an oral administration at the dose of 2 mg/kg and 10 mg/kg, whole blood of the mice was collected for a certain period of time to prepare plasma. The drug concentration was analyzed by LC-MS/MS method, and Phoenix WinNonlin software was used (Pharsight, USA) to calculate the pharmacokinetic parameters.
Cmax: the highest concentration of the drug in the body; F %: oral bioavailability; Oral DNAUC: area under the dose normalization curve; Vd: apparent volume of distribution; Cl: clearance rate; T1/2: half-life.

One may read the IC50 as the concentration needed to halve the response being measured. As a reminder, the Cmax is the maximum level reached in the sampled fluid or tissue.

T2 sequence (P42338 whole entry): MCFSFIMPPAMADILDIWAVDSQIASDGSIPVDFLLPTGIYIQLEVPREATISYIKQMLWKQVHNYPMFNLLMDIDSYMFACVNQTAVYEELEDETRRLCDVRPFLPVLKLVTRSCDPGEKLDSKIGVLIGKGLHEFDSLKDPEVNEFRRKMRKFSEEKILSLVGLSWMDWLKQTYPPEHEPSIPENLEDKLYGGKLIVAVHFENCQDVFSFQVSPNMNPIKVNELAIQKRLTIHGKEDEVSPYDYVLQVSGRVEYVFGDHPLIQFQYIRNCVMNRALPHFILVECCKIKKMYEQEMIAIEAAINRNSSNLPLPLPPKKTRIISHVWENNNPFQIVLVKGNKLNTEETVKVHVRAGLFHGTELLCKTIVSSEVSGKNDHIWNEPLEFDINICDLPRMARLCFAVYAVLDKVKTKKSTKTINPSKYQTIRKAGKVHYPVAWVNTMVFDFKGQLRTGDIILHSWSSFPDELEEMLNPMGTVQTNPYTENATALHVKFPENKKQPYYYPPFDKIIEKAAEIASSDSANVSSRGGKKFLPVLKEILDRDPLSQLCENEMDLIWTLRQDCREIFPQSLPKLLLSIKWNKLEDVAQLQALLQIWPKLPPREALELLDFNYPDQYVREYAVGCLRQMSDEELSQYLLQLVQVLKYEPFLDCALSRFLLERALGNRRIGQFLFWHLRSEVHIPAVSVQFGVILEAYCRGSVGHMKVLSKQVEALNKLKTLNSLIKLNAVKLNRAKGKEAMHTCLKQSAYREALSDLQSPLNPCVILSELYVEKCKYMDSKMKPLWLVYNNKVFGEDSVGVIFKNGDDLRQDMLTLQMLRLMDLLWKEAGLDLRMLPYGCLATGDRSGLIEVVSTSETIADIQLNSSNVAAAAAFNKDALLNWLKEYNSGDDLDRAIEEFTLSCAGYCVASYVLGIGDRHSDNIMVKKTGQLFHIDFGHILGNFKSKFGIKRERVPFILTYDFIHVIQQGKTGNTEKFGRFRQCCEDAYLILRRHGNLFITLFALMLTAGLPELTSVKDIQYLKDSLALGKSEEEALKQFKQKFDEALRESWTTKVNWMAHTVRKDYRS
T2 sequence (P27986 whole entry partner): as the sequence (P27986 whole entry partner) above
T1 sequence (P42336 whole entry): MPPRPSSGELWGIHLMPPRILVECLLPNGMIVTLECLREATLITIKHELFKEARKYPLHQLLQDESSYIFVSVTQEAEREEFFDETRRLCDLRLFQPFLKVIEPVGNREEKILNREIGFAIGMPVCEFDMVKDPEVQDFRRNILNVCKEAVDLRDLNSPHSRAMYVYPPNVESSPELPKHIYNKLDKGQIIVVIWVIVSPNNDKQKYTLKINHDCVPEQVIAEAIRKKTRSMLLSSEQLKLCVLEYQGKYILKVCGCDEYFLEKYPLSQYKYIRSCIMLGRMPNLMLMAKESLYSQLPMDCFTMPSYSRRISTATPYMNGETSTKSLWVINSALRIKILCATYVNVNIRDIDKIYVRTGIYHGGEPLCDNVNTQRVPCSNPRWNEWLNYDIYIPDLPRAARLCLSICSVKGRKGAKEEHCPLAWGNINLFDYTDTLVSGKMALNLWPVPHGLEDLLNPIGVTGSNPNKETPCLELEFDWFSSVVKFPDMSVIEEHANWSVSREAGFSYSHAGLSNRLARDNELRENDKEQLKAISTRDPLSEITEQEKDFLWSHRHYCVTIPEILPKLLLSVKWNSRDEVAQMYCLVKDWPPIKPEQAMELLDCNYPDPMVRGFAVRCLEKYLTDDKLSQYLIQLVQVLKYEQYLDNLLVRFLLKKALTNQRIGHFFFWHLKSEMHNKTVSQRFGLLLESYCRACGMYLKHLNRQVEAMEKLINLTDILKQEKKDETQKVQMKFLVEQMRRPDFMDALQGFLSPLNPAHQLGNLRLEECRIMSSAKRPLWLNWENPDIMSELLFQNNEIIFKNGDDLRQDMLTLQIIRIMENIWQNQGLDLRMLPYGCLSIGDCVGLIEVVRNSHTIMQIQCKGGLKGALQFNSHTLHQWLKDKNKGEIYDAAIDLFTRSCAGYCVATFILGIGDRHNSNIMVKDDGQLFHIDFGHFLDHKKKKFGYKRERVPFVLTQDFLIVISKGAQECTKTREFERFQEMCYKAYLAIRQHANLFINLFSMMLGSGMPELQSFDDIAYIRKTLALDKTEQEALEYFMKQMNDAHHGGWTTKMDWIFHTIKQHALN
T1 sequence (P27986 whole entry partner): as the sequence (P27986 whole entry partner) above
T4 sequence (P48736 whole entry): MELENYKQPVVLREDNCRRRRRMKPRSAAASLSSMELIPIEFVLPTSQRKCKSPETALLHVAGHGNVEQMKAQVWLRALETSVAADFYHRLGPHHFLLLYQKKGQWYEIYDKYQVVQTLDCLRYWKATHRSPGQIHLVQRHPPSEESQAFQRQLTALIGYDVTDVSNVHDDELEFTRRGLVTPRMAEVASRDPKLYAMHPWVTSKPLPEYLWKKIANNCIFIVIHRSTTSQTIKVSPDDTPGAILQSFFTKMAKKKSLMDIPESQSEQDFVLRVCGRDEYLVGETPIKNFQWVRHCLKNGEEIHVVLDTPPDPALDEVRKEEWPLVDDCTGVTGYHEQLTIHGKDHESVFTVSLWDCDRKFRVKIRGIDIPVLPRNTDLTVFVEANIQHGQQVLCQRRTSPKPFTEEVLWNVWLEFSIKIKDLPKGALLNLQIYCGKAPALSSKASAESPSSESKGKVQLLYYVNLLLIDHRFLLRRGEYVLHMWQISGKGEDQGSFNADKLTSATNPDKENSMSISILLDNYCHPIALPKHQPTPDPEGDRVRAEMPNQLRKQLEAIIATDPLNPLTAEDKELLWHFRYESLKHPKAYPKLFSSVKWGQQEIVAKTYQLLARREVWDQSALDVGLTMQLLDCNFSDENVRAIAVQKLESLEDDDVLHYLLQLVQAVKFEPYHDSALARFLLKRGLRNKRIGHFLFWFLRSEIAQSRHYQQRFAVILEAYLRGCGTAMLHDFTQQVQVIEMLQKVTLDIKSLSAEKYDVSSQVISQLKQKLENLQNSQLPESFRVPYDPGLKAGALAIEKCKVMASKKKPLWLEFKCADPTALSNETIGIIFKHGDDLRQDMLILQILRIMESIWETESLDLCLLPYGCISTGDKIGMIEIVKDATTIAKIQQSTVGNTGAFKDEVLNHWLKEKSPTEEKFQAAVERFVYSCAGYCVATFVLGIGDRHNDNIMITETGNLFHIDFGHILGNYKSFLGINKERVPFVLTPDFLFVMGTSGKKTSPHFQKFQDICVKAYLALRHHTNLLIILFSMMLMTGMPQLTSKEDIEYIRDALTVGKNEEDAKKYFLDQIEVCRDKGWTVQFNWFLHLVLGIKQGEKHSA

On to `COc1ncc(-c2ccc3ncn(CCN(C)C)c(=O)c3c2)cc1NS(=O)(=O)c1ccc(F)cc1` [R011, reference compound], for which the 50% inhibitory concentration (IC50) in data set [1] (Homo sapiens, MCF7, 2 h) is 230 nM; on PI3Kα, 74.5 nM; against PI3Kβ it was 168 nM. Moreover, in the data set with PI3K, the “inhibitory effect on PI3K” value was “good inhibitory effect”.
`CCN(CC)CCn1cnc2ccc(-c3cnc(OC)c(NS(=O)(=O)c4ccc(F)cc4F)c3)cc2c1=O` [R012, reference compound]: the IC50 in data set [1] (Homo sapiens, MCF7, 2 h) was over 1000 nM; against PI3Kα, 13.9 nM; on PI3Kβ, 67.9 nM. For the same compound, in the data set on PI3K, the “inhibitory effect on PI3K” value was “good inhibitory effect”.
`COc1ncc(-c2ccc3ncn(CC(C)C(=O)NCC(F)(F)F)c(=O)c3c2)cc1NS(=O)(=O)c1ccc(F)cc1Cl` (single isomer, unassigned) [WX058]: the half-maximal inhibitory concentration (IC50) in data set [1] came out at 56.1 nM; against PI3Kα it was 5.49 nM; on PI3Kδ it was 18.7 nM; against PI3Kβ, 589 nM; against PI3Kγ, 54.2 nM. In addition, the TGI % in data set [2] came to 60.0%.
Take `CNC(=O)C(C)Cn1cnc2ccc(-c3cnc(OC)c(NS(=O)(=O)c4cc(C(F)(F)F)cc(C(F)(F)F)c4)c3)cc2c1=O` (single isomer, unassigned) [WX103]: the half-inhibitory concentration (IC50) stood at 13.4 nM in data set [1]; 20.8 nM against PI3Kα; 403 nM against PI3Kδ; 2280 nM on PI3Kβ; 360 nM at PI3Kγ. Besides, the “Cl (clearance rate)” value in data set [3] (intravenous 1 mg/kg) is listed as 1.29 mL/min/kg. The “Intravenous injection T1/2” value in data set [3] (intravenous 1 mg/kg) was 3.55 h. The “Vd (apparent volume of distribution)” value in data set [3] (intravenous 1 mg/kg) is 0.324 L/kg. For the same compound, in data set [3] (oral 10 mpk vs intravenous 1 mg/kg), the “F % (oral bioavailability)” value is 58.4%. In data set [3] (oral, 10 mpk), this compound had a Cmax of 18.3 µM. Moreover, the “Oral DNAUC (area under the dose normalization curve)” value in data set [3] (oral, 10 mpk) is given as 12262 nM · h/mpk.
